Drawing on patent publication US20170304388A1, “NEW INDICATION OF CARDIOVASCULAR DRUGS FOR PREPARATION OF CANCER INHIBITION PHARMACEUTICAL COMPOSITION” (LAUNX BIOMEDICAL CO., LTD., priority 2014, published 2017), this text covers viability for one compound.

Common to all, as to type: cell-based
Test [1] concerns HepG2 (Hepatocellular Carcinoma). The test can be described thus: Cell viability analysis (WST-1), HepG2. The note with it: Homo sapiens, HepG2, 72 h.
Test [2] has as its system HeLa (Cervix Adenocarcinoma). The test can be described thus: Cell viability analysis (WST-1), HeLa. As to conditions: Homo sapiens, HeLa, 72 h.
The test system of test [3] is AGS (Gastric Adenocarcinoma). The test can be described thus: Cell viability analysis (WST-1), AGS. As to conditions: 72 h. A general note: Formazan colour is commonly taken as a measure of viable cells.
Test [4] relates to MKN-45 (Gastric Adenocarcinoma). The test can be described thus: Cell viability analysis (WST-1), MKN-45. As to conditions: Homo sapiens, MKN-45, 72 h.
Test [5] relates to A549 (Lung Adenocarcinoma). The test can be described thus: Cell viability analysis (WST-1), A549. The note with it: Homo sapiens, A549, 72 h.
Test [6] has as its system BCC. In words: Cell viability analysis (WST-1), BCC. The note with it: BCC, 72 h, Table 4, repeated experiments, drug 10 μM, read-out: survival rate (viability) of cancer cells, BCC.

Read-outs that look alike come from different tables or passages of the source.

The term viability denotes a read-out of living cells in per cent, often relative to untreated cells. Take `CCC(C)(C)C(=O)O[C@H]1C[C@@H](C)C=C2C=C[C@H](C)[C@H](CC[C@@H]3C[C@@H](O)CC(=O)O3)[C@H]21` [Simvastatin (Zocor), Simvastatin]: the viability at 10 µM in test [1] (Table 3, drug 10 μM, WST-1, OD450 nm, read-out: survival rate (viability) of cancer cells, HepG2) came to 113%; in test [1] (Table 4, repeated experiments, drug 10 μM, WST-1, read-out: survival rate (viability) of cancer cells, HepG2), 124%; in test [2] (Table 3, drug 10 μM, WST-1, OD450 nm, read-out: survival rate (viability) of cancer cells, HeLa), 104%; in test [2] (Table 4, repeated experiments, drug 10 μM, WST-1, read-out: survival rate (viability) of cancer cells, HeLa), 100%; in test [3] (Table 3, drug 10 μM, WST-1, OD450 nm, read-out: survival rate (viability) of cancer cells, AGS), 85.6%; in test [3] (Table 4, repeated experiments, drug 10 μM, WST-1, read-out: survival rate (viability) of cancer cells, AGS), 81%. Further, the viability at 10 µM in test [4] (Table 3, drug 10 μM, WST-1, OD450 nm, read-out: survival rate (viability) of cancer cells, MKN-45) is 79.4%; in test [4] (Table 4, repeated experiments, drug 10 μM, WST-1, read-out: survival rate (viability) of cancer cells, MKN-45), 92.6%; in test [5] (Table 3, drug 10 μM, WST-1, OD450 nm, read-out: survival rate (viability) of cancer cells, A549) it was 126%; in test [5] (Table 4, repeated experiments, drug 10 μM, WST-1, read-out: survival rate (viability) of cancer cells, A549), 110%; in test [6], 57.4%.
